Read-outs that look alike come from different tables or passages of the source.
Experiments:
[1] = tested on: statin-treated patients with atherosclerotic coronary or vascular disease or coronary risk equivalent; details: for Deaths: of 176 ezetimibe / of 187 niacin enrolled
From the text: (§1) Endpoints: The predefined primary endpoint was the between-group difference in the change in mean CIMT after 14 months. Secondary endpoints included the change in lipid values, a composite endpoint consisting of major adverse cardiovascular events (coronary heart disease death, myocardial infarction, myocardial revascularization, admission to the hospital for an acute coronary syndrome), drug discontinuation due to adverse effects, and health-related quality of life (Schweikert et al., 2008). Clinical cardiovascular endpoints were adjudicated by consensus of two members of the data advisory committee blinded to treatment assignment.

[2] = tested on: statin-treated patients with atherosclerotic coronary or vascular disease or coronary risk equivalent; assay: Fasting plasma lipids, glucose and C-reactive protein during treatment; details: for HDL-C / LDL-C / Total Cholesterol / Final change in HDL-C / Final change in LDL-C: added to statin; for HDL-C / LDL-C / Total Cholesterol / Total cholesterol, final values / HDL-C, final values / LDL-C, final values: mean ± SD; for C-reactive protein / Triglycerides: median (inter-quartile range); for Change from baseline in LDL-C and triglycerides: 315 patients, baseline to final; for Final change in HDL-C / Final change in LDL-C: baseline to 14 months; for Total cholesterol, final values / HDL-C, final values / LDL-C, final values / Triglycerides, final values / hsCRP, final values: study completion; for Total cholesterol, final values: n=315 (ezetimibe 161, niacin 154), last observation carried forward; for HDL-C, final values / LDL-C, final values / Triglycerides, final values / hsCRP, final values: n=315; for Triglycerides, final values / hsCRP, final values: median (interquartile range);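 on all read-outs here: plasma drawn after an overnight fast, LDL-C determined by direct assay and C-reactive protein by high-sensitivity immunoturbidimetry with monoclonal anti-CRP antibodies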
Experimental: Study population: This prospective, randomized, parallel group, open-label, blinded endpoint study was conducted at two centers, Walter Reed Army Medical Center, a university-affiliated, suburban, tertiary care military medical center, and the Washington Adventist Hospital, a private tertiary care hospital located in Takoma Park, Md. The institutional review boards of each facility approved the study, and all volunteers provided written, informed consent. Included subjects were men and women ≧30 years old with either known atherosclerotic coronary or vascular disease (N=279) or a coronary risk equivalent diagnosis including diabetes mellitus (N=38), a 10-year coronary heart disease Framingham risk score ≧20% (N=26), or a coronary calcium score above 200 or 400 (N=20) for women and men respectively.
Randomization: Three hundred sixty-three patients were enrolled in the trial. […] Randomization was performed using a computer-generated sequence of random numbers. There were no protocol-directed changes in statin medications during the study.
Cardiovascular risk variables: Following an overnight fast, laboratory measurements included plasma total cholesterol, LDL-C, HDL-C, triglycerides, C-reactive protein, liver-associated enzymes and glucose at baseline, 2, 8 and 14 months. LDL-C was measured using a direct assay. C-reactive protein was measured with a high-sensitivity, commercially available immunoturbidimetric assay, which uses monoclonal antibodies to CRP (Roche Cobas® Integra, Switzerland).

[3] = tested on: statin-treated patients with atherosclerotic coronary or vascular disease or coronary risk equivalent; assay: Major adverse cardiovascular events (composite clinical endpoint); type: in vivo, human; details: 14-month study; for Cardiovascular death (number of events) / Coronary revascularization procedure (number of events) / Myocardial infarction (number of events) / Subjects experiencing a composite clinical cardiovascular endpoint (major adverse cardiovascular events): ezetimibe N=165, niacin N=160
From the text: as §1

[4] = tested on: statin-treated patients with atherosclerotic coronary or vascular disease or coronary risk equivalent; assay: Carotid B-mode ultrasound: change in carotid intima-media thickness (CIMT), ARBITER 6-HALTS trial; type: in vivo, human; details: for Change in CIMT: 8 and 14 months; for Change in CIMT / Change in CIMT - Mean CIMT / Change in CIMT - Max CIMT: added to statin; for Change in CIMT - Mean CIMT / Change in CIMT - Max CIMT / Change in mean CIMT / Change from baseline CIMT, maximal thickness / Change from baseline CIMT, mean thickness: mean ± SE; for Change in mean CIMT: LOCF; for Effect of increased cumulative drug exposure on CIMT: exploratory analysis, quartiles of adherence × dose × duration; for Change from baseline CIMT, maximal thickness / Change from baseline CIMT, mean thickness: last observation carried forward, all subjects (ezetimibe n=161, niacin n=154)
From the text: as §1
Carotid B-mode Ultrasound: Carotid ultrasonography was performed using a Sonosite Micromax ultrasound system (Bothell, Wash.) equipped with a broadband linear array probe (13 MHz). Participants underwent 3 ultrasound examinations during the study at baseline, 8 and 14 months. Except for the initial 20 baseline examinations performed at the Washington Adventist site, a single sonographer performed all ultrasound examinations. Images were obtained of the far wall of the distal 1 centimeter of the right and left common carotid arteries in the anterior and lateral views. A total of eight images (2 complete sets of 4 separate images) were obtained with standardized ultrasound settings. Baseline CIMT images were used to localize the site of imaging in serial images. Digitized still images from an electrocardiographically-defined diastolic frame were quantitated off-line. A single observer unaware of treatment assignment and patient identification performed measurements of mean and maximal CIMT. Focal atherosclerotic plaque was excluded from the site of CIMT measurement. All measurements were performed in duplicate using an automated border detection algorithm. […] Reader drift was evaluated using a standard image set (10 CIMT images from different patients) which the sonographer serially quantified every 6 months.
Statistical analysis: The primary endpoint was the change in mean CIMT from baseline to 14 months between the niacin and ezetimibe treatment groups. […] Clinical and carotid imaging data were held in separate databases for the duration of the trial. Between-group data for continuous variables were assessed with a t-test for independent variables or a Mann-Whitney U test as appropriate. A chi-square test was used for categorical variables. Kaplan-Meier survival analysis was performed using the log rank test. All statistical analyses were performed using SPSS software (version 16, SPSS Inc., Chicago, Ill.). Values are reported as mean±standard deviation or standard error, and median (inter-quartile range) for non-normal distributions. A 2-sided P value of 0.05 was considered statistically significant.
Study design: The study design prespecified the performance of a blinded, interim analysis according to the conservative method of O'Brien and Fleming with an alpha spending function (O'Brien et al. 1979). This was conducted after 180 subjects (60% of the planned sample size) completed the study. An independent data advisory committee evaluated the endpoint data without knowledge of treatment assignment. No formal, a priori stopping boundaries were set for the trial.

[5] = both, human, in vivo, 14 months
[6] = 2 Months, 208 subjects who completed 14 month study
[7] = 8 months from baseline, 208 completers (ezetimibe N=111, niacin N=97)
[8] = 8 months from baseline, 208 completers
[9] = 14 months from baseline, completing subjects (ezetimibe n=111, niacin n=97)
[10] = Quartile 1 (lowest) of cumulative drug exposure (adherence × dose × treatment duration)
[11] = Quartile 2 of cumulative drug exposure
[12] = Quartile 3 of cumulative drug exposure
[13] = Quartile 4 (highest) of cumulative drug exposure, 14 months

O=C1[C@H](CC[C@H](O)c2ccc(F)cc2)[C@@H](c2ccc(O)cc2)N1c1ccc(F)cc1 [Ezetimibe, ezetimibe]
Withdrawals with adverse drug effects cited as the reason [1, 5]: 3 | Subjects who did not complete the study ([1]; in vivo): 16 | Subjects who did not complete the study (percent) ([1]; in vivo): 9.1% | Withdrawals ([1]; in vivo): 9 | Deaths [1]: 7 | HDL-C ([2]; 2 Months, 208 completers): 42.2 ± 8.5 mg/dL | LDL-C ([2]; 2 Months, 208 completers): 60.1 ± 16.1 mg/dL | C-reactive protein ([2]; 2 Months, 208 completers): 1.2 (0.6-3.0) mg/L | Triglycerides ([2]; 2 Months, 208 completers): 100 (78-140) mg/dL | Total Cholesterol [2, 6]: 120.2 ± 20.6 mg/dL | HDL-C ([2]; 8 Months, 208 completers): 41.1 ± 9.0 mg/dL | LDL-C ([2]; 8 Months, 208 completers): 61.6 ± 17.2 mg/dL | Total Cholesterol ([2]; 8 Months, 208 completers): 122.4 ± 21.5 mg/dL | C-reactive protein ([2]; 8 Months, 208 completers): 1.3 (0.6-2.9) mg/L | Triglycerides ([2]; 8 Months, 208 completers): 107 (78-153) mg/dL | HDL-C ([2]; 14 Months, 208 completers): 40.5 ± 7.9 mg/dL | LDL-C ([2]; 14 Months, 208 completers): 66.1 ± 18.8 mg/dL | Total Cholesterol ([2]; 14 Months, 208 completers): 127.8 ± 22.8 mg/dL | C-reactive protein ([2]; 14 Months, 208 completers): 0.6 (0.6-3.1) mg/L | Triglycerides ([2]; 14 Months, 208 completers): 113 (84-150) mg/dL | Change from baseline in LDL-C and triglycerides [2]: Significant reductions | Final change in HDL-C ([2]; 208 completers): -2.8 ± 5.7 mg/dL | Final change in LDL-C ([2]; 208 completers): -17.6 ± 20.1 mg/dL | Total cholesterol, final values [2]: 127.5 ± 24.8 mg/dL | HDL-C, final values [2]: 41.1 ± 8.5 mg/dL | LDL-C, final values [2]: 65.5 ± 20.0 mg/dL | Triglycerides, final values [2]: 111 (82-144) mg/dl | hsCRP, final values [2]: 1.0 (0.5-2.9) mg/l | Incidence of major adverse cardiovascular events [3]: 5.8% | Cardiovascular death (number of events) [3]: 5 | Coronary revascularization procedure (number of events) [3]: 3 | Myocardial infarction (number of events) [3]: 3 | Subjects experiencing a composite clinical cardiovascular endpoint (major adverse cardiovascular events) [3]: 9 subjects | Change in CIMT ([4]; 208 completers): No net change | Change in CIMT - Mean CIMT [4, 7]: 0.0014 ± 0.0020 mm | Change in CIMT - Max CIMT [4, 8]: −0.0028 ± 0.0031 mm | Change in CIMT - Max CIMT [4, 9]: −0.0009 ± 0.0039 mm | Change in CIMT - Mean CIMT [4, 9]: −0.0007 ± 0.0035 mm | Change in mean CIMT [4, 10]: −0.0071 ± 0.0031 mm | Change in mean CIMT [4, 11]: −0.0051 ± 0.0036 mm | Change in mean CIMT [4, 12]: −0.0009 ± 0.0067 mm | Change in mean CIMT [4, 13]: 0.0067 ± 0.0059 mm | Change in mean CIMT ([4]; Quartile 4 (highest) of cumulative drug exposure, 14 months, listed as ezetimibe): 0.0067±0.0059 mm | Effect of increased cumulative drug exposure on CIMT [4]: progression of CIMT | Change from baseline CIMT, maximal thickness [4]: −0.0005 ± 0.0029 mm | Change from baseline CIMT, mean thickness [4]: −0.0016 ± 0.0024 mm | Change from baseline CIMT, maximal thickness ([4]; listed as ezetimibe): −0.0005±0.0029 mm | Change from baseline CIMT, mean thickness ([4]; listed as ezetimibe): −0.0016±0.0024 mm

O=C(O)c1cccnc1 [Niacin, niacin]
Cutaneous flushing reported [1, 5]: 36.1% | Subjects who did not complete the study ([1]; in vivo): 28 | Subjects who did not complete the study (percent) ([1]; in vivo): 14.9% | Withdrawals ([1]; in vivo): 27 | Withdrawals with adverse drug effects cited as the reason ([1]; of 9 ezetimibe / of 27 niacin withdrawals): 17 | Deaths [1]: 1 | HDL-C ([2]; 2 Months, 208 completers): 48.9 ± 10.6 mg/dL | LDL-C ([2]; 2 Months, 208 completers): 66.2 ± 18.1 mg/dL | C-reactive protein ([2]; 2 Months, 208 completers): 1.1 (0.6-3.1) mg/L | Triglycerides ([2]; 2 Months, 208 completers): 88 (69-125) mg/dL | Total Cholesterol [2, 6]: 131.0 ± 22.9 mg/dL | HDL-C ([2]; 8 Months, 208 completers): 50.7 ± 11.6 mg/dL | LDL-C ([2]; 8 Months, 208 completers): 67.1 ± 19.5 mg/dL | Total Cholesterol ([2]; 8 Months, 208 completers): 133.6 ± 25.5 mg/dL | C-reactive protein ([2]; 8 Months, 208 completers): 1.1 (0.5-2.4) mg/L | Triglycerides ([2]; 8 Months, 208 completers): 88 (66-123) mg/dL | HDL-C ([2]; 14 Months, 208 completers): 49.9 ± 12.2 mg/dL | LDL-C ([2]; 14 Months, 208 completers): 70.5 ± 23.9 mg/dL | Total Cholesterol ([2]; 14 Months, 208 completers): 136.7 ± 29.3 mg/dL | C-reactive protein ([2]; 14 Months, 208 completers): 1.0 (0.4-2.9) mg/L | Triglycerides ([2]; 14 Months, 208 completers): 90 (69-138) mg/dL | Change from baseline in LDL-C and triglycerides [2]: Significant reductions | Final change in HDL-C ([2]; 208 completers): +7.5±9.2 mg/dL | Final change in LDL-C ([2]; 208 completers): -10.0 ± 24.5 mg/dL | Total cholesterol, final values [2]: 137.6 ± 30.5 mg/dL | HDL-C, final values [2]: 49.7 ± 11.5 mg/dL | LDL-C, final values [2]: 72.7 ± 25.9 mg/dL | Triglycerides, final values [2]: 91 (69-134) mg/dl | hsCRP, final values [2]: 1.0 (0.4-2.3) mg/l | Incidence of major adverse cardiovascular events [3]: 1.3% | Cardiovascular death (number of events) [3]: 1 | Coronary revascularization procedure (number of events) [3]: 0 | Myocardial infarction (number of events) [3]: 1 | Subjects experiencing a composite clinical cardiovascular endpoint (major adverse cardiovascular events) [3]: 2 subjects | Change in CIMT ([4]; 208 completers): significant reduction in mean and maximal CIMT (regression) | Change in CIMT - Mean CIMT [4, 7]: −0.0102 ± 0.0030 mm | Change in CIMT - Max CIMT [4, 8]: −0.0128 ± 0.0043 mm | Change in CIMT - Max CIMT [4, 9]: −0.0181 ± 0.0050 mm | Change in CIMT - Mean CIMT [4, 9]: −0.0142 ± 0.0041 mm | Change in CIMT - Mean CIMT ([4]; 14 months from baseline, completing subjects (ezetimibe n=111, niacin n=97), listed as ERN): −0.0142±0.0041 mm | Change in mean CIMT [4, 10]: −0.0052 ± 0.0041 mm | Change in mean CIMT [4, 11]: −0.0073 ± 0.0027 mm | Change in mean CIMT [4, 12]: −0.0148 ± 0.0060 mm | Change in mean CIMT [4, 13]: −0.0128 ± 0.0078 mm | Change in mean CIMT ([4]; Quartile 4 (highest) of cumulative drug exposure, 14 months, listed as ERN): −0.0128±0.0078 mm | Effect of increased cumulative drug exposure on CIMT [4]: regression of CIMT | Change from baseline CIMT, maximal thickness [4]: −0.0124 ± 0.0036 mm | Change from baseline CIMT, mean thickness [4]: −0.0102 ± 0.0026 mm | Change from baseline CIMT, maximal thickness ([4]; listed as niacin): −0.0124±0.0036 mm | Change from baseline CIMT, mean thickness ([4]; listed as niacin): −0.0102±0.0026 mm

Reference: US20110207759A1, “METHOD FOR TREATMENT OF ATHEROSCLEROTIC DISEASE” (priority 2010, published 2011)
